Measured values taken from US20230304097A1, “PREDICTING CANCER RELAPSE AND TREATMENT OF CANCER DISEASES” (priority 2020, published 2023).
“Also recorded” adds a separate entry of the source.

Tests used:
[1] = system: GTS cells; assay: Drug treatment and proliferation assay (Resazurin/Alamar blue), recurrent tumor cells; type: cell-based, mouse
Method: Tumor cells (GTML, GTS and preGTS) were isolated as previously described from tumor bearing mice (Cancer Cell 2012, 21: 601-613) and cultured as neurospheres in serum-free conditions with Neurobasal (NB) media, additional B27 supplement, 100 units Penicillin and 0.1 mg/ml Streptomycin, 2 mM L-glutamine, 1:500 Antibiotic-Antimycotic, 20 ng/ml EGF and 20 ng/ml FGF-2. Human MB002 primary cell culture was obtained from Dr. Yoon Jae-Cho and cultured in serum-free conditions, 1:1 of Neurobasal Media (-vitamin A) and DMEM/F12 with Sodium Pyruvate, NEAA, HEPES, GlutaMAX, 100 units Penicillin and 0.1 mg/ml Streptomycin, B27 supplement, 20 ng/ml EGF and 20 ng/ml FGF-2, 1X LIF and 1X Heparin as previously described Clin Cancer Res 2014, 20: 912-925. Stable doxycycline-inducible SOX9wt and SOX9CPD mutant cell lines were generated as described (EMBO J 2016, 35: 2192-2212), lentiviruses were first packed in HEK293T cells by the specified pTRIPZ lentivector with the packaging plasmids, psPAX2 and pMD2.G. Supernatants containing viral particles (48 - 96 hours post transfection) were used to infect the target cells in the presence of freshly added hexadimethrine bromide ([…]). Seventy-two hours post-transfection, the cells were selected and maintained in appropriate culture medium containing puromycin (0.125 - 0.5 µg/mL).
To assess cell proliferation, 10 000 cells were plated in triplicates in 96-well plate. Proliferation was measured every 24 h for five days using Resazurin colorimetric assay. […] ThioTEPA was dissolved in DMSO and added similarly to a final concentration of 10-100 µM. Doxorubicin was dissolved in H2O and added to a final concentration of 100-120 nM. Spheres from pre-GT20 cells were treated with Cisplatin at a final concentration of 10 µM. Number of SOX9-positive cells per spheres was counted in 10 spheres in treated (Cisplatin) and untreated (DMSO) conditions. Statistical significance was calculated using a unpaired non-parametric Mann-Whitney test.

[2] = system: GTML cells; assay: Drug treatment and proliferation assay (Resazurin/Alamar blue), primary tumor cells; type: cell-based, mouse
Method: Tumor cells (GTML, GTS and preGTS) were isolated as previously described from tumor bearing mice (Cancer Cell 2012, 21: 601-613) and cultured as neurospheres in serum-free conditions with Neurobasal (NB) media, additional B27 supplement, 100 units Penicillin and 0.1 mg/ml Streptomycin, 2 mM L-glutamine, 1:500 Antibiotic-Antimycotic, 20 ng/ml EGF and 20 ng/ml FGF-2. Human MB002 primary cell culture was obtained from Dr. Yoon Jae-Cho and cultured in serum-free conditions, 1:1 of Neurobasal Media (-vitamin A) and DMEM/F12 with Sodium Pyruvate, NEAA, HEPES, GlutaMAX, 100 units Penicillin and 0.1 mg/ml Streptomycin, B27 supplement, 20 ng/ml EGF and 20 ng/ml FGF-2, 1X LIF and 1X Heparin as previously described Clin Cancer Res 2014, 20: 912-925. […]
To assess cell proliferation, 10 000 cells were plated in triplicates in 96-well plate. Proliferation was measured every 24 h for five days using Resazurin colorimetric assay. […] Number of SOX9-positive cells per spheres was counted in 10 spheres in treated (Cisplatin) and untreated (DMSO) conditions. Statistical significance was calculated using a unpaired non-parametric Mann-Whitney test.

[3] = in children and in adults; cited from earlier work
[4] = system: pre-GT20 cells; assay: Cisplatin treatment of tumor sphere cultures, SOX9 staining and cell counts; type: cell-based, mouse; conditions: pre-GTS tumor spheres, 10 µM, 72 h in culture
Method: Brains were fixed in 4% PFA and embedded in paraffin block. preGT20 sphere cultures were fixed in 4 % PFA for a minimum of 12 hours at 4° C. and then embedded in HistoGel followed by paraffin embedding. 6-7 µm sections of paraffin-embedded tissue were used for all staining. The complete protocol for the IHC was described previously (Genes & development 2010, 24: 1059-1072).
To assess cell proliferation, 10 000 cells were plated in triplicates in 96-well plate. Proliferation was measured every 24 h for five days using Resazurin colorimetric assay. The MGMT inhibitor Lomeguatrib was dissolved in DMSO and added to cells 24 h post cell plating to a final concentration of 20 µM. ThioTEPA was dissolved in DMSO and added similarly to a final concentration of 10-100 µM. Doxorubicin was dissolved in H2O and added to a final concentration of 100-120 nM. Spheres from pre-GT20 cells were treated with Cisplatin at a final concentration of 10 µM. Number of SOX9-positive cells per spheres was counted in 10 spheres in treated (Cisplatin) and untreated (DMSO) conditions. Statistical significance was calculated using a unpaired non-parametric Mann-Whitney test.

[5] = system: GTML-pSOX9-GFP cells; assay: FACS quantification of GFP (SOX9)-positive cells after cisplatin treatment; type: cell-based, mouse; conditions: 24 h treatment
Method: Tumor burdened GTML;SOX9-eGFP mice were sacrificed and tumors dissociated, cells cultured as we described above. Cells were harvested, accutased and filtered with 30 µm cell strainer, then sorted for GFP-positive (SOX9) cells (488_FITC-A) and GFP-negative cell population. For cisplatin treatment experiment, cells were treated with cisplatin 24 h before cell sorting. The BD FACSMelody was used for sorting and quantifying in this experiment. MB002-pSOX9-GFP cells were dissociated using accutase and sorted for GFP expression (488_FITC-A). The BD FACSarialll was used for this experiment and it was analyzed using BD FACSDiVa version 8.0.

[6] = system: GTML2 and GTML3 cerebellar allografts; assay: Survival of Nude mice allografted with GTML cell lines after dox diet (minimal residual disease); type: in vivo, mouse; conditions: 7 days of dox treatment
Method: Injections of tumor cells into mouse brains were performed as thoroughly described elsewhere (Cancer Cell 2016, 29: 311-323; Cancer Cell 2012, 21: 601-613) and as follows. For allograft and in vivo transplantation studies, adult Nude mice were anesthetized and cerebellar allografts generated by injection of 100,000 cells into the cerebellum. Mice were monitored until phenotypic presentation of a brain tumor, at which point they were euthanized. At sacrifice, whole brains were excised and biopsies taken for experimental procedures. PDX models used included BT084 (metastatic SHH MB established in Dr. Till Milde’s lab, Heidelberg, Germany), Med-211FH, Med-411FH (metastatic Group 3 MBs established in Dr. Jim Olson’s lab, Seattle, USA) and ICb-1572MB (metastatic Group 3 MB established in Dr. Xiaonan Li’s lab, Houston, USA) all obtained from Dr. Robert Wechsler-Reya’s lab and used as described elsewhere (Cancer Cell 2016, 29: 311-323). Orthotopic PDX growth was studied in brain and spinal cord in NSG mice that were maintained in the animal facilities at Sanford Burnham Prebys Medical Discovery Institute (SBP) and at the Sanford Consortium for Regenerative Medicine. […]
All animal experiments were conducted once. Animal survival was graphically shown as a Kaplan Meier curve, made and assessed using GraphPad Prism 7 software. The p-value for survival curves is calculated using a LogRank test.

For `COc1cc2ncnc(Nc3ccc(F)c(Cl)c3)c2cc1OCCCN1CCOCC1` [Gefitinib], the “specificity for targeting forebrain GTS cells” value ([1]; data not shown) was “not specific for targeting forebrain GTS cells”.
In the case of `Nc1nc(OCc2cc(Br)cs2)c2[nH]cnc2n1` [Lomeguatrib], the “proliferation of GTML cells” value ([2]; 20 µM, 24, 48 and 72 h, GTML3 and GTML13 cell lines) is reported as “did not show any efficacy”, the “proliferation of GTS cells, combination with ThioTEPA” value ([1]; 10 µM Lomeguatrib added to ThioTEPA (10, 100 µM), 72 h) is reported as “decreased proliferation of GTS tumor cells even further; also recorded: significantly decreases proliferation” and the “proliferation of GTS cells” value ([1]; 20 µM, 24, 48 and 72 h, GT20 and GT21 cell lines) is reported as “significantly decreased proliferation”.
For `CC(C)[C@H](N)C(=O)OCC(CO)OCn1cnc2c(=O)nc(N)[nH]c21` (stereo partly drawn) [ValGCV, valganciclovir], the “blood brain barrier penetration” value [3] is given as “penetrates the BBB well” and the “concentration in the cerebrospinal fluid (CSF)” value [3] is given as “high concentrations”.
In the case of `N.N.[Cl][Pt][Cl]` [cisplatin, Cisplatin], the “cell survival and apoptotic cell death” value [4] is reported as “decreased cell survival and massive apoptotic cell death”, the “number of SOX9-positive cells surviving the treatment” value ([4]; vs DMSO) is reported as “significant upregulation and increase in the number of SOX9-positive cells” and the “number of SOX9-positive cells compared to DMSO control” value ([5]; FACS of GFP-positive cells) is reported as “increases the number of SOX9-positive cells”. For the same molecule, the SOX9-positive cells ([5]; GFP-positive cells by FACS, increase from 2.4% (DMSO control)) was 8.6%.
In the case of `C[C@H]1c2cccc(O)c2C(=O)C2=C(O)[C@]3(O)C(=O)C(C(N)=O)=C(O)[C@@H](N(C)C)[C@@H]3[C@@H](O)[C@@H]21` [dox, doxycycline hyclate], the “overall survival, GTML2 allograft” value [6] is reported as 16.5 weeks and the “overall survival, GTML3 allograft” value [6] is reported as 9 weeks.
With `COc1cccc2c1C(=O)c1c(O)c3c(c(O)c1C2=O)C[C@@](O)(C(=O)CO)C[C@@H]3O[C@H]1C[C@H](N)[C@H](O)[C@H](C)O1` [doxorubicin] the “viable GTML cells” value ([2]; 200 nM, 72 h) was “nearly half of the cells were still viable”, the “viable fGTS (forebrain recurrence) cells” value ([1]; 200 nM, 72 h) was “completely depleted” and the “viable hGTS (hindbrain recurrence) cells” value ([1]; 200 nM, 72 h) was “nearly half of the cells were still viable”.
